Article PMC8986850, “Development and exploration of novel substituted thiosemicarbazones as inhibitors of aldose reductase via in vitro analysis and computational study” (Scientific Reports, 2022)

Tests used:
[1] = DPPH radical scavenging activity; conditions: 100 µM compound, methanolic DPPH 0.025 mg/mL, 517 nm
Protocol: DPPH (2,2-diphenyl-1-picrylhydrazyl) was used to explore the free radical quenching ability of 3a-o so as to provide a gauge of their antioxidant potential. The experiment was conducted according to a previously reported protocol with slight modifications. Percent free radical scavenging activities (% FRSA) of 3a-o were determined by spectrophotometric analysis at 517 nm using a homogenous mixture of methanolic DPPH (0.025 mg/mL) and a 100 µM solution of the tested compound, with ascorbic acid used as a positive control (Fig. 3).

ALR2 = target: T1, ALR2 (Bos taurus, UniProt P16116); assay: ALR2 enzyme inhibition assay (enzyme extracted from calf lenses); type: biochemical, bovine; conditions: for IC50: bovine lens ALR2, substrate DL-glyceraldehyde, mean ± SEM of three measurements; for inhibition at 100 µM: bovine lens ALR2, 100 µM inhibitor, read-out: I (%, 100 µM) (ALR2) (converted)
T1 construct: from tissue; host or cells: calf eye lenses
Protocol: Compounds 3a-o were tested against ALR2 to evaluate their inhibitory potential against aldose reductase whereas selectivity was determined via performing ALR1 inhibition assay. For the enzyme inhibition assay, ALR2 and ALR1 were extracted from bovine sources (ALR2 from eyes and ALR1 from kidneys). Moreover, inhibitions studies were also carried out on the expressed ALR2 (human AKR1B1) and inhibition data for ALR2- bovine source and expressed enzyme was compared and analyzed. The protocols for enzyme extraction and expression in the bacterial system are included in the section of “Supporting information”. […] For the purpose of comparison and validation of enzyme inhibition data, these compounds were tested against human AKR1B1 (hAKR1B1) expressed in E. coli BL21 (DE3).
(§1) For the determination of enzyme activity of ALR1 and ALR2, 100 µL of reaction mixture was composed of 20 µL of buffer (100 mM sodium phosphate, pH 6.2), 30 µL of enzyme extract, 20 µL of substrate (10 mM), 20 µL of cofactor (0.1 mM of NADPH) and 10 µL of test compound (1 mM)[6],[21]. The reaction mixture without cofactor was incubated at 32°C for 10 min, then the enzymatic reaction was initiated with the addition of NADPH and monitored for 5 minutes. Similar protocols were followed for ALR1 and ALR2, however the substrate was different for each enzyme, with sodium-D-glucoronate and DL-glyceraldehyde used as the substrates for the ALR1 and ALR2 assays, respectively. […] In addition, similar protocols were adopted for human AKR1B1 that was expressed in E. coli BL21 (DE3), though the determined protein concentration was 12 µg/mL for the expressed enzyme. Detailed protocols for the preparation of ALR1, ALR2 and expressed human AKR1B1 can be found in the supporting information.
(§2) The newly synthesized N-substitute thiosemicarbazones (3a-o) were dissolved in 100% DMSO and diluted with deionized water, keeping the DMSO concentration equal to 0.1% in the assay.
The extraction of ALR2 was carried out from calf lenses via adopting method described in
in (Hayman and Kinoshita 1965) with little modification. The lenses were obtained from slaughterhouse immediately after calf’s slaughtering and stored at -20^◦C until further use. These lense (150-170g) were subjected to homogenization with about three times volume of cold distilled water and then centrifugation was carried out for the homogenate at 10,000 x g for 14 minutes for removal of insoluble lipids particles. Precipitates were discarded and supernatant layer was subjected to 40% saturation of ammonium sulphate and again centrifugation was performed with same parameters for 14 minutes and again precipitates were discarded. […] In the last step, the supernatant was subjected to 75% of saturation with ammonium sulphate to obtain ALR2. Now, the precipitates were collected instead supernatant because precipitated protein was the expected desired ALR2. The precipitated enzyme (ALR2) was redissolved in 50mM solution of sodium chloride and dialyzed for 24 hours against 50mM solution (3.5L) of NaCl. The volume was recorded before and after dialysis, then dialyzed material was treated with liquid nitrogen. The extracted ALR2 was stored in 1mL Eppendorf tube in deep freezer at -80 ^◦C till further enzymatic studies.

human AKR1B1 (hAKR1B1) = target: T2, human AKR1B1 (hAKR1B1) (Homo sapiens, UniProt P15121); assay: Inhibition of expressed human AKR1B1 (E. coli BL21 (DE3)); type: biochemical; conditions: for IC50: human AKR1B1 expressed in E. coli BL21 (DE3), mean ± SEM of three measurements; for inhibition at 100 µM: human AKR1B1 expressed in E. coli, 100 µM inhibitor, read-out: I (%, 100 µM) (AKR1B1)
T2 construct: made in house; host or cells: E. coli BL21 (DE3)
Protocol: For the enzyme inhibition assay, ALR2 and ALR1 were extracted from bovine sources (ALR2 from eyes and ALR1 from kidneys). Moreover, inhibitions studies were also carried out on the expressed ALR2 (human AKR1B1) and inhibition data for ALR2- bovine source and expressed enzyme was compared and analyzed. The protocols for enzyme extraction and expression in the bacterial system are included in the section of “Supporting information”. […] For the purpose of comparison and validation of enzyme inhibition data, these compounds were tested against human AKR1B1 (hAKR1B1) expressed in E. coli BL21 (DE3).
as §1, with “The reaction mixture without cofactor was incubated at 32°C for 10 min, then the enzymatic reaction was initiated with the addition of NADPH and monitored for 5 minutes.” left out
as §2
The expression plasmid for aldose reductase (pDONR223_AKR1B1_WT) was gift from Addgene in stable culture. Streaking of this culture has been carried out on LB Agar plate then incubated overnight, after growth of colonies , inoculation was performed in LB medium then incubated this medium in shaking incubator at 37 °C. After 48 hours turbidity was measured when OD=0.6 then some of bacterial growth was prepared as 50% glycerol stock. Others are subjected to plasmid isolation following method Miniprep. Meanwhile E. Coli BL21 De3 cells were made competent then transformation with extracted plasmid (AKR1B1) had been carried out heat shock method. Transformed cell ( E.Coli BL21 DE3+AKR1B1) were grown in 37 °C in shaking incubator for 48 hr. The selection for transformed cells was carried out with the help of antibiotic (spectinomycin 50µg/ml). […] For the expression of aldose reductase , E.coli BL21DE3 were induced with of IPTG(Isopropyl-d-thiogalactopyranoside)[3]. […] The expressed enzyme was stabilized by addition 10 mM Tris–HCl buffer, 0.5 mM EDTA, 5 mM β-marcaptoethanol at pH 8.0 and 20% (v/v) glycerol. Cells were lysed with lysis buffer and then precipitation with ammonium sulfate up to 80% saturation was done . the expressed enzyme was dialyzed overnight against tris buffer. Protein quantification was performed following Bradford protein assay. Aliqoutes were stored at -80 refrigerator.

ALR1 = target: T3, ALR1 (Bos taurus, UniProt Q3ZCJ2); assay: ALR1 enzyme inhibition assay (enzyme extracted from calf kidneys); type: biochemical, bovine; conditions: for IC50: bovine kidney ALR1, substrate sodium-D-glucoronate, mean ± SEM of three measurements
T3 construct: The calf’s kidneys were obtained after slaughtering and dissection; from tissue; host or cells: calf kidneys
Protocol: Compounds 3a-o were tested against ALR2 to evaluate their inhibitory potential against aldose reductase whereas selectivity was determined via performing ALR1 inhibition assay. For the enzyme inhibition assay, ALR2 and ALR1 were extracted from bovine sources (ALR2 from eyes and ALR1 from kidneys). Moreover, inhibitions studies were also carried out on the expressed ALR2 (human AKR1B1) and inhibition data for ALR2- bovine source and expressed enzyme was compared and analyzed. The protocols for enzyme extraction and expression in the bacterial system are included in the section of “Supporting information”. […] For the purpose of comparison and validation of enzyme inhibition data, these compounds were tested against human AKR1B1 (hAKR1B1) expressed in E. coli BL21 (DE3). We found a similar pattern of enzyme inhibition for the synthesized compounds against extracted enzyme (ALR2) as well as expressed enzyme (hAKR1B1).
as §1, §2
The calf’s kidneys were obtained after slaughtering and dissection, dissolved in 3 volumes of sodium phosphate buffer (10mM) which is composed of 2.0 mM EDTA, 2.5mM β-mercaptoethanol, 0.25M solution of sucrose at pH 7.25. First, the homogenisation was carried out then centrifugation of the homogenate was performed at 12000 x g at 0-2^◦C for 30 minutes. The precipitates containing insoluble lipids were discarded and the collected supernatant layer was treated with 40% saturation of ammonium sulphate. This liquid mixture was subjected to centrifugation at 11000 x g at 0-2^◦C for 30 minutes. Now, precipitates were again discarded and supernatant was collected and treated with 50% ammonium sulphate and procedure was repeated in the same manner as in previous step. In the last step, the saturation of ammonium sulphate was increased up to 75% and supernatant was subjected to same parameter of centrifugation. At this final step, precipitates were obtained and supernatant layer was discarded. The obtained material of precipitates was composed of ALR1and redissolved in initial buffer that was used during homogenisation. Finally, material was dialyzed overnight with same buffer system. The dialyzed fractions containing ALR1 were stored at -80^◦C for further use[5].

T3 sequence (Q3ZCJ2 whole entry): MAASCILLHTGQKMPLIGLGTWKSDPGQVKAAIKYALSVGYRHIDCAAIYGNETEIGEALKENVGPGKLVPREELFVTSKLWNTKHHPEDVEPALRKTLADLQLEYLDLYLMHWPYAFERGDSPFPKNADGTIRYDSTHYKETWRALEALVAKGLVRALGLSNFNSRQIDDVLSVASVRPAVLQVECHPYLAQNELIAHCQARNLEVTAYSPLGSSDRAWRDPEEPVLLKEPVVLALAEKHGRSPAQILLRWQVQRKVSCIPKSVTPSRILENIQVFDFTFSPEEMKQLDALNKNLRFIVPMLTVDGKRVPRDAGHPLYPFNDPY

melting point	IC50 (ALR2)	IC50 (human AKR1B1 (hAKR1B1))	IC50 (ALR1)	inhibition at 100 µM (ALR2)	inhibition at 100 µM (human AKR1B1 (hAKR1B1))	inhibition at 100 µM (ALR1; bovine kidney ALR1, 100 µM inhibitor, read-out: I (%, 100 µM) (ALR1))	Compound	% FRSA (percent free radical scavenging activity) [1]
–	–	–	–	–	–	–	O=C1O[C@H]([C@@H](O)CO)C(O)=C1O [Ascorbic acid, reference compound]	89.88%
178 to 180 °C	2.99 ± 0.0021 µM	3.89 ± 0.0034 µM	2.83 ± 0.0034 µM	–	–	–	CC(C)(C)c1cc(C=NNC(=S)Nc2ccccc2)c(O)c(C(C)(C)C)c1 [Compound 3a, 2-(3,5-di-tert-butyl-2-hydroxybenzylidene)-N-phenylhydrazinecarbothioamide]	79.41%
186 to 188 °C	–	–	–	≤ 44.6%	27.4%	≤ 31.6%	Cc1ccc(NC(=S)NN=Cc2cc(C(C)(C)C)cc(C(C)(C)C)c2O)c(C)c1 [Compound 3b, 2-(3,5-di-tert-butyl-2-hydroxybenzylidene)-N-(2,4-dimethylphenyl)hydrazine carbothioamide]	84.05%
173 to 175 °C	4.49 ± 0.0034 µM	3.27 ± 0.0035 µM	4.21 ± 0.0021 µM	–	–	–	COc1cccc(NC(=S)NN=Cc2cc(C(C)(C)C)cc(C(C)(C)C)c2O)c1 [Compound 3c, 2-(3,5-di-tert-butyl-2-hydroxybenzylidene)-N-(3-methoxyphenyl)hydrazine carbothioamide]	85.16%
182 to 184 °C	–	–	–	–	3.56%	–	Cc1ccccc1NC(=S)NN=Cc1cc(C(C)(C)C)cc(C(C)(C)C)c1O [Compound 3d, 2-(3,5-di-tert-butyl-2-hydroxybenzylidene)-N-(o-tolyl)hydrazinecarbothioamide]	84.58%
190 to 192 °C	–	–	–	–	12.3%	–	CC(C)(C)c1cc(C=NNC(=S)NCc2ccccc2)c(O)c(C(C)(C)C)c1 [Compound 3e, N-benzyl-2-(3,5-di-tert-butyl-2-hydroxybenzylidene)hydrazinecarbothioamide]	83.20%
176 to 178 °C	2.38 ± 0.0028 µM	3.95 ± 0.0038 µM	–	–	–	–	CC(C)(C)c1cc(C=NNC(=S)Nc2ccc(F)cc2)c(O)c(C(C)(C)C)c1 [Compound 3g, 2-(3,5-di-tert-butyl-2-hydroxybenzylidene)-N-(4-fluorophenyl)hydrazine carbothioamide]	85.89%
168 to 170 °C	–	–	–	≤ 39.1%	38%	–	CC(C)(C)c1cc(C=NNC(=S)NC2CCCCC2)c(O)c(C(C)(C)C)c1 [Compound 3h, N-cyclohexyl-2-(3,5-di-tert-butyl-2-hydroxybenzylidene)hydrazinecarbothioamide]	83.54%
184 to 186 °C	–	–	–	≤ 39.1%	22.3%	–	CC(C)(C)c1cc(C=NNC(=S)Nc2ccc(Br)cc2)c(O)c(C(C)(C)C)c1 [Compound 3i, N-(4-bromophenyl)-2-(3,5-di-tert-butyl-2-hydroxybenzylidene)hydrazine carbothioamide]	81.80%
188 to 190 °C	1.46 ± 0.005 µM	1.65 ± 0.004 µM	–	81.5%	–	–	CC(C)(C)c1cc(C=NNC(=S)Nc2ccc(Cl)cc2)c(O)c(C(C)(C)C)c1 [Compound 3l, N-(4-chlorophenyl)-2-(3,5-di-tert-butyl-2-hydroxybenzylidene)hydrazine carbothioamide]	61.55%
189 to 191 °C	–	–	–	≤ 39.1%	22.6%	–	CC(C)c1ccc(NC(=S)NN=Cc2cc(C(C)(C)C)cc(C(C)(C)C)c2O)cc1 [Compound 3n, 2-(3,5-di-tert-butyl-2-hydroxybenzylidene)-N-(4-isopropylphenyl)hydrazine carbothioamide]	7.91%
–	–	–	49.31 ± 0.005 µM	–	–	–	CCCC(CCC)C(=O)O [Valproic acid, reference compound]	–
